# According to Sander's compilation of Henry's law constants (doi:10.1080/00039896.1979.10667371):
# Experiment: Henry solubility constant Hcp at 310 K (mol/(m3 Pa))
# Conditions: reference: Sato and Nakajima (1979b)
row,SMILES,Henry solubility constant Hcp at 310 K
1,"ClCC(Cl)(Cl)Cl [1,1,1,2-tetrachloroethane]",0.0021
2,"CC(Cl)(Cl)Cl [1,1,1-trichloroethane]",0.00036
3,"ClC(Cl)C(Cl)Cl [1,1,2,2-tetrachloroethane]",0.014
4,"ClCC(Cl)Cl [1,1,2-trichloroethane]",0.0066
5,"CC(Cl)CCl (stereo not drawn) [1,2-dichloropropane]",0.0021
6,"Clc1cccc(Cl)c1 [1,3-dichlorobenzene]",0.0021
7,CCCCCl [1-chlorobutane],0.00033
8,CCCCCCl [1-chloropentane],0.00027
9,Clc1ccccc1 [chlorobenzene],0.0016
10,ClCCl [dichloromethane],0.0028
11,ClC(Cl)=C(Cl)Cl [tetrachloroethene],0.00017
12,ClC(Cl)(Cl)Cl [tetrachloromethane],9.7e-05
13,ClC=C(Cl)Cl [trichloroethene],0.0005
